The test system of test [1] is lipid peroxide (malondialdehyde (MDA)). Description: Anti-oxidation experiment: content of lipid peroxide (MDA). The format is in vivo, human. On the procedure:
(§1) During the experiment, all the volunteers kept original living and dietary habits. […] Subsequently, the content of lipid peroxide (malondialdehyde (MDA)), superoxide dismutase (SOD) activity and glutathione peroxidase (GSH-PX) activity of the volunteers were measured. The measurement method was the same as the method for evaluating health food.

The next test has as its system NK cell. Description: Immunity experiment: NK cell activity, cellular immune function. The format is in vivo. The following applies: male BALB/c mice, gavage daily, three months; Example 1 0.50, selenium-enriched yeast 0.05, yeast beta-glucan 0.15, Vitamin C 0.20, Vitamin E 0.10 g/kg·bw. On the procedure: (§2) 60 male BALB/c mice of clean grade with body weight 18-22 g were purchased from Shanghai Xipu'er-Bikai Experimental Animal Co., Ltd. (Add: […] Physiological saline was administered to the blank group. Three months later, a plurality of immune index of mice comprising thymus weight/body weight ratio, humoral immunity function (antibody index) and cellular immune function (NK cell activity) were measured. The measurement method was the same as the method for evaluating health food.

In another test the test system is spleen cells. Description: Immunity experiment: antibody cell detection (plaque forming cells), humoral immunity function. It counts as in vivo. The following applies: male BALB/c mice, gavage daily, three months; Example 1 0.50, selenium-enriched yeast 0.05, yeast beta-glucan 0.15, Vitamin C 0.20, Vitamin E 0.10 g/kg·bw. On the procedure:
as §2

Test [2] deals with superoxide dismutase (SOD). Description: Anti-oxidation experiment: SOD activity. It counts as in vivo, human. On the procedure: as §1
Another test relates to BALB/c mice. Description: Immunity experiment: thymus weight/body weight ratio. It counts as in vivo. As to conditions: male BALB/c mice, gavage daily, three months; Example 1 0.50, selenium-enriched yeast 0.05, yeast beta-glucan 0.15, Vitamin C 0.20, Vitamin E 0.10 g/kg·bw. On the procedure: as §2
Test [3] relates to glutathione peroxidase (GSH-PX). Description: Anti-oxidation experiment: GSH-Px activity. It counts as in vivo, human. As to the method: as §1
The mark [4] stands for this setting: volunteers 45-65 years, before administration (baseline).
Where [5] appears, read: volunteers, after administration two times a day for three months, Example 2 500 mg, selenium-enriched yeast 150 mg, yeast beta-glucan 450 mg, Vitamin C 2.5 mg, Vitamin E 2.5 mg each time.

As for `O=C1O[C@H]([C@@H](O)CO)C(O)=C1O` [Vitamin C], the values for the MDA content in test [1] (setting [4]) and in test [1] (setting [5]) were 5.77 ± 0.65 nmol/mL and 5.75 ± 0.60 nmol/mL, respectively. Further, in the test with NK cell, the NK cell activity is listed as 18.18 ± 4.14%. Further, the “Antibody cell detection Quantity of plaque forming cells” value with spleen cells is on record as 87 ± 41 /106 spleen cells. Besides, the SOD activity is 13335.1 ± 1466.6 U/gHb in test [2] (setting [4]) and 13345.5 ± 1472.7 U/gHb in test [2] (setting [5]). The “Thymus weight/body weight ratio” value in the test on BALB/c mice is given as 1.80 ± 0.57 mg/g. Moreover, the figures for the GSH-Px activity in test [3] (setting [4]) and in test [3] (setting [5]) were 121.6 ± 15.67 U/mL and 123.7 ± 15.33 U/mL, respectively.
With Vitamin E, the MDA content in test [1] (setting [4]) stood at 5.74 ± 0.55 nmol/mL; in test [1] (setting [5]), 5.72 ± 0.65 nmol/mL. The molecule further came in with an NK cell activity in the test with NK cell of 18.02 ± 5.31%. Besides, the “Antibody cell detection Quantity of plaque forming cells” value with spleen cells is 96 ± 21 /106 spleen cells. The SOD activity in test [2] (setting [4]) was 13297.0 ± 2193.7 U/gHb; in test [2] (setting [5]) it was 13375.6 ± 2014.7 U/gHb. Further, the “Thymus weight/body weight ratio” value in the test with BALB/c mice turned out to be 1.90 ± 0.33 mg/g. For the same molecule, the GSH-Px activity in test [3] (setting [4]) turned out to be 120.8 ± 13.12 U/mL; in test [3] (setting [5]), 121.9 ± 9.78 U/mL.

The values above are taken from patent US8883137B2, “Compositions comprising selenium-rich yeast and yeast beta-glucan” (Angel Yeast Co., Ltd., priority 2008, dated 2014).
